Measured values: patent US12029748B2, “Synergistic composition for maintenance of healthy balance of microflora” (KIMBERLY-CLARK WORLDWIDE, INC., priority 2017, dated 2024)

What was measured:
[1] = Initial pH screening of the composition; type: physicochemical; details: for I pH (initial pH), 0.10%: nitrogen compound 0.10 wt/vol % with 1.0 wt/vol % α methyl-D glucoside in medium; for I pH (initial pH), 0.50%: nitrogen compound 0.50 wt/vol % with 1.0 wt/vol % α methyl-D glucoside in medium; for I pH (initial pH), 1.00%: nitrogen compound 1.00 wt/vol % with 1.0 wt/vol % α methyl-D glucoside in medium
Excerpt: Each composition in Table 1 went through initial screening measures of solubility and initial pH (“I pH”). […] When a specific concentration of a nitrogen containing compound was insoluble, the initial and final pH (“F pH”) of the combined composition was not measured and accordingly are each marked as “NM.” Additionally, initial pH of the composition was checked as a screening measure. The initial pH was marked as either Low (“L”), High (“H”), or Pass (“P”). A Low initial pH corresponds to an initial pH being less than 5.5, a High initial pH corresponds to an initial pH being greater than 6.5, and a Pass initial pH corresponds to the pH being at or between 5.5-6.5. […] As part of the Therapeutic Effect Protocol, a final pH was also measured after the compositions that were tested against the Lactobacillus and E. coli.
(§1) All of the ingredients in Table 2 were combined and the pH was adjusted to 6.5. […] To evaluate the effect of various nitrogen containing therapeutic agents on the growth of bacteria, the LAPT-g media, prepared as described above, was supplemented with various nitrogen containing compound therapeutic agents to a final test concentration between 0.1 and 1.0%. As initial screening measures, solubility and initial pH of each composition were checked. If a specific composition was insoluble (as detected by visual indication of precipitates or turbidity), then no further therapeutic efficacy testing was undertaken on that composition. Additionally, if the initial pH of the composition was below 5.5 (“Low”) or was above 6.5 (“High”), then no further therapeutic efficacy testing was undertaken on that composition.

[2] = system: L. crispatus and E. coli; assay: Therapeutic Effect Protocol: L. crispatus / E. coli co-culture, ratio after 36 hours; type: cell-based, Lactobacillus crispatus; E. coli; details: for Therapeutic Efficacy Results (Lactobacillus/E. coli) 0.10%: nitrogen compound 0.10 wt/vol % with 1.0 wt/vol % α methyl-D glucoside (10:1); for Therapeutic Efficacy Results (Lactobacillus/E. coli) 0.10% / Therapeutic Efficacy Results (Lactobacillus/E. coli) 0.50% / Therapeutic Efficacy Results (Lactobacillus/E. coli) 1.00%: 36 hours anaerobic co-culture, 37° C.; for Therapeutic Efficacy Results (Lactobacillus/E. coli) 0.50%: nitrogen compound 0.50 wt/vol % with 1.0 wt/vol % α methyl-D glucoside (2:1); for Therapeutic effect when ratio α methyl-D glucoside : nitrogen compound is at least about 2:1, but not at 1:1 / Therapeutic effect at ratio 2:1 and 10:1, but not at 1:1 / Therapeutic effect (ratio of Lactobacillus to E. coli greater than 2) at each concentration tested / Therapeutic effect when ratio α methyl-D glucoside : nitrogen compound is less than 2:1 (1:1): with α methyl-D glucoside; for Therapeutic effect when ratio α methyl-D glucoside : nitrogen compound is at least about 2:1, but not at 1:1: ratio at least about 2:1, not 1:1; for Therapeutic effect at ratio 2:1 and 10:1, but not at 1:1: ratios 2:1 and 10:1, not 1:1; for Therapeutic Efficacy Results (Lactobacillus/E. coli) 1.00%: nitrogen compound 1.00 wt/vol % with 1.0 wt/vol % α methyl-D glucoside (1:1); for Therapeutic effect (ratio of Lactobacillus to E. coli greater than 2) at each concentration tested: nitrogen compound 1 wt/vol %, 0.5 wt/vol % and 0.1 wt/vol %; for Therapeutic effect when ratio α methyl-D glucoside : nitrogen compound is less than 2:1 (1:1): ratio 1:1
Description: As used herein the term “therapeutic effect” refers to the ability of the compositions and formulations of the present invention to stimulate the growth of Lactobacillus relative E. coli measured according to the Therapeutic Effect Protocol described below. Generally, therapeutic effect is expressed as a ratio of Lactobacillus to E. coli and is desirably greater than about 2, more preferably greater than about 20 and more desirably greater than about 100.
The data in Table 1 was tested according to the Therapeutic Effect Protocol as described further herein. The nitrogen compounds were tested for their therapeutic efficacy at three different concentrations when combined with α methyl-D glucoside (1% wt/vol %). The concentrations of the nitrogen containing compounds that were tested were 1% wt/vol %, 0.5% wt/vol %, and 0.1% wt/vol %.
Colonies of L. crispatus and E. coli were prepared as follows. A colony of L. crispatus was transferred to 7 ml de Man, Rogosa & Sharpe (MRS) broth and incubated anaerobically (using BD GasPak EZ anaerobe container system with indicator) at 37° C. without shaking for 18-20 hours. A colony of E. coli was transferred to 5 ml Tryptic Soy Broth (TSB) and incubated aerobically (shaking at 100 rpm) at 37° C. for 18-20 hours.
Colonies were then inoculated as follows. Bacterial cultures were gently vortexed and 1 mL of each culture was transferred to a corresponding 2.0 mL micro-centrifuge tube and then centrifuged for two minutes at 14,500 rpm. The cultural supernatant was removed and the cell pellet was re-suspended in 1 mL of 0.95% (wt/vol %) saline. […] For L. crispatus, the pellet was re-suspended in 1 mL of 0.95% saline to achieve ˜10^7-10^8 cfu/mL. For E. coli, the pellet was re-suspended in 1 mL of 0.95% saline to achieve ˜10^8-10^9 cfu/mL.
Media were prepared as follows.
as §1
Five milliliters (5 mL) of each medium was transferred to a test tube in duplicates for subsequent inoculation. A master mixture of L. crispatus and E. coli, prepared as described above, was prepared in 1,000:1 ratio. Each (5 ml) test tube was inoculated with the master mixture to give 10^5-10^6 total CFU L. crispatus and 100-1,000 total CFU E. coli per tube.
To establish a negative control, one tube was vortexed and 100 μL was removed to determine the initial cell concentrations by serial dilutions and plating (2 plates per dilution). L. crispatus is selected on MRS agar plates incubated anaerobically at 37° C. for two days. E. coli is selected on TSA plates incubated aerobically at 37° C. for one day. The co-cultures were incubated in an anaerobic container with BD GasPaks at 37° C. for 36 hours.
The effect of the α methyl-D glucoside and the nitrogen containing compound therapeutic agents on the ratio of L. crispatus to E. coli was measured 36 hours after inoculation and a final pH of the test solutions was recorded. The co-culture tube was vortexed and 100 μL was removed to determine the final cell concentrations by serial dilutions and plating (2 plates per dilution). L. crispatus is selected on MRS agar plates incubated anaerobically at 37° C. for two days.

| SMILES | I pH (initial pH), 0.10% [1] | I pH (initial pH), 0.50% [1] | I pH (initial pH), 1.00% [1] | Therapeutic Efficacy Results (Lactobacillus/E. coli) 0.10% [2] | Therapeutic Efficacy Results (Lactobacillus/E. coli) 0.50% [2] | Therapeutic effect when ratio α methyl-D glucoside : nitrogen compound is at least about 2:1, but not at 1:1 [2] | Therapeutic effect at ratio 2:1 and 10:1, but not at 1:1 [2] | Therapeutic Efficacy Results (Lactobacillus/E. coli) 1.00% [2] | Therapeutic effect (ratio of Lactobacillus to E. coli greater than 2) at each concentration tested [2] | Therapeutic effect when ratio α methyl-D glucoside : nitrogen compound is less than 2:1 (1:1) [2] |
| --- | --- | --- | --- | --- | --- | --- | --- | --- | --- | --- |
| O=C1NC(=O)C(=O)C(=O)N1 [Alloxan] | P (a Pass initial pH corresponds to the pH being at or between 5.5-6.5) | P (a Pass initial pH corresponds to the pH being at or between 5.5-6.5) | L (A Low initial pH corresponds to an initial pH being less than 5.5) | 4.83 | 1.45E+04 | provided a therapeutic effect | provided a therapeutic effect | – | – | – |
| C[C@@H](N)C(=O)O [D-Alanine] | P (a Pass initial pH corresponds to the pH being at or between 5.5-6.5) | P (a Pass initial pH corresponds to the pH being at or between 5.5-6.5) | P (a Pass initial pH corresponds to the pH being at or between 5.5-6.5) | 1.10E+06 | >1.30E+04 | – | – | 60 | provided a therapeutic effect | provided a therapeutic effect |
| NC(=O)C[C@@H](N)C(=O)O [D-Asparagine] | P (a Pass initial pH corresponds to the pH being at or between 5.5-6.5) | P (a Pass initial pH corresponds to the pH being at or between 5.5-6.5) | P (a Pass initial pH corresponds to the pH being at or between 5.5-6.5) | >3410 | 6.00E+06 | – | – | 72 | provided a therapeutic effect | provided a therapeutic effect |
| Cl.N[C@H]1C(O)O[C@H](CO)[C@H](O)[C@@H]1O (stereo partly drawn) [D-Galactosamine HCL] | P (a Pass initial pH corresponds to the pH being at or between 5.5-6.5) | P (a Pass initial pH corresponds to the pH being at or between 5.5-6.5) | P (a Pass initial pH corresponds to the pH being at or between 5.5-6.5) | 6.72 | >1220 | provided a therapeutic effect | provided a therapeutic effect | 1.29 | – | – |
| Cl.N[C@H]1C(O)O[C@H](CO)[C@@H](O)[C@@H]1O (stereo partly drawn) [D-Glucosamine HCL] | P (a Pass initial pH corresponds to the pH being at or between 5.5-6.5) | P (a Pass initial pH corresponds to the pH being at or between 5.5-6.5) | P (a Pass initial pH corresponds to the pH being at or between 5.5-6.5) | 77.8 | 6.00E+06 | – | – | 454 | provided a therapeutic effect | provided a therapeutic effect |
| NC(=O)[C@H]1O[C@@H](O)[C@H](O)[C@@H](O)[C@@H]1O [D-glucoronamide] | P (a Pass initial pH corresponds to the pH being at or between 5.5-6.5) | P (a Pass initial pH corresponds to the pH being at or between 5.5-6.5) | P (a Pass initial pH corresponds to the pH being at or between 5.5-6.5) | >122 | 6.84E+03 | provided a therapeutic effect | provided a therapeutic effect | 1.6 | – | – |
| Cl.N[C@@H]1C(O)O[C@H](CO)[C@@H](O)[C@@H]1O (stereo partly drawn) [D-mannosamine HCl] | P (a Pass initial pH corresponds to the pH being at or between 5.5-6.5) | P (a Pass initial pH corresponds to the pH being at or between 5.5-6.5) | P (a Pass initial pH corresponds to the pH being at or between 5.5-6.5) | 0.202 | 84 | provided a therapeutic effect | – | 0.96 | – | – |
| CC(O)C(N)=O (stereo not drawn) [DL Lactamide] | P (a Pass initial pH corresponds to the pH being at or between 5.5-6.5) | P (a Pass initial pH corresponds to the pH being at or between 5.5-6.5) | P (a Pass initial pH corresponds to the pH being at or between 5.5-6.5) | 7.52 | >1330 | provided a therapeutic effect | provided a therapeutic effect | 0.8 | – | – |
